{"source": "patent EP0343223B1", "about": "“USE OF MELATONIN OR DERIVATIVES THEREOF FOR THE PRODUCTION OF PHARMACEUTICAL COMPOSITIONS EFFECTIVE TO COUNTERACT THE EFFECTS OF AGING” (priority 1987, dated 1989)", "type_in_all_cases": "in vivo", "key": {"[1]": {"test_system": "C57BL/6J inbred male mice", "experiment": "Nocturnal oral melatonin in the drinking water of aging mice: life span and body weight", "procedure": "Experiments were initiated in 1985 in which groups of C57BL/6J inbred male mice, aged 575 days (10 mice per group), were given melatonin (10 µg/ml) in the drinking water while the controls received tap water containing the same amount of absolute ethanol used to prepare melatonin stock solution (1 ml ethanol in 10 liters of tap water). The drinking water with or without melatonin was given at 6 p.m. and removed at 8.30 a.m. The drinking water was changed twice weekly. Starting at 5 months after initiation of the nocturnal, oral melatonin treatment, when the mice reached two years of age, a striking difference of body weight and of general body and pelage conditions started to be evident. Although some of the mice died earlier in both groups, the majority of the surviving mice treated with melatonin maintained their optimal body weight until 28 to 33 months of age (35.8± 4 grams) while the untreated mice lost progressively weight and were all dead within 29 months of age. Average body weight of the control mice at 27 months of age was 27.8± 4 grams.\nThe last melatonin-treated mouse died at 3 years of age. These date though preliminary make it evident that melatonin treatment of aging mice prolonged their life or circa 20 percent (average 6 months longer). The life span of melatonin-treated mice was 931 ± 80 days while that of control mice was 755 ± 81 days (p < 0.01)."}, "T3 and T4": {"test_system": "T3 and T4", "experiment": "T3 and T4 by radioimmunoassay in serum of aging mice after chronic night melatonin in drinking water", "from_the_text": "It can be seen (Table 1) that chronical treatment with melatonin in the drinking water in aging mice elevates the levels of T3 ([…]) and T4 (tyroxine) in their peripheral blood and corrects thus ageing-related thyroid dysfunction or lowered function."}, "lipids in blood": {"test_system": "lipids in blood", "experiment": "Lipids in blood of aging mice after chronic night melatonin treatment", "details": "data not shown", "from_the_text": "It follows that the increase of the production of thyroid hormones induced in vivo by exogenous melatonin should also be accompanied by an improved degradation of cholesterol, triglycerides and phospholipids and by detoxification effects at the liver level, all these beneficial effects resulting in a slowing down of the aging process."}, "[2]": {"details": "C3H/He female, age 23 months, 3 months of melatonin treatment"}, "[3]": {"details": "C3H/He female, age 23 months, 3 months of melatonin treatment, serum"}, "[4]": {"details": "C57BL/6 female, age 22 months, 5 months of melatonin treatment"}}, "data": [{"smiles": "COc1ccc2[nH]cc(CCNC(C)=O)c2c1", "note": "[melatonin]", "values": [{"measurement": "age at death of the last melatonin-treated mouse", "setting": "[1]; C57BL/6J male mice", "value": 3, "unit": "years"}, {"measurement": "life span", "setting": "[1]; C57BL/6J male mice, melatonin 10 µg/ml in drinking water 6 p.m. to 8.30 a.m., from 575 days of age, p < 0.01 vs control", "value": "931 ± 80", "unit": "days"}, {"measurement": "body weight", "setting": "[1]; surviving melatonin-treated mice, maintained until 28 to 33 months of age, 10 µg/ml in drinking water at night, started at 575 days of age", "value": "35.8± 4", "unit": "grams"}, {"measurement": "average life prolongation (longer)", "setting": "[1]; versus control mice", "value": 6, "unit": "months"}, {"measurement": "prolonged their life", "setting": "[1]; versus control mice", "value": "circa 20%"}, {"measurement": "T3 change vs untreated", "setting": "T3 and T4; [2]", "value": "+25%"}, {"measurement": "T4/T3", "setting": "T3 and T4; [2]", "value": 42.47}, {"measurement": "T4/T3 change vs untreated", "setting": "T3 and T4; [2]", "value": "+18%"}, {"measurement": "T4 change vs untreated", "setting": "T3 and T4; [2]", "value": "+34%"}, {"measurement": "T3", "setting": "T3 and T4; [3]", "value": "0.664± 0.137"}, {"measurement": "T4", "setting": "T3 and T4; [3]", "value": "28.2± 0.8"}, {"measurement": "T3 change vs untreated", "setting": "T3 and T4; [4]", "value": "+11%"}, {"measurement": "T4/T3", "setting": "T3 and T4; [4]", "value": 54.27}, {"measurement": "T4/T3 change vs untreated", "setting": "T3 and T4; [4]", "value": "+10%"}, {"measurement": "T4 change vs untreated", "setting": "T3 and T4; [4]", "value": "+20%"}, {"measurement": "T3", "setting": "T3 and T4; C57BL/6 female, age 22 months, 5 months of melatonin treatment, serum", "value": "0.691± 0.077"}, {"measurement": "aging-related increase of lipids in blood", "setting": "lipids in blood", "value": "corrects the aging-related increase of lipids in blood"}]}]}
